Assay results: patent US9480679B2, “Methods for treating malaria, tuberculosis and MAC diseases” (priority 2009, dated 2016)
Values after ≈ are worked out from the molar mass of the structure shown. Values joined by “and” are separate entries in the source; they are usually repeats but may differ in a detail not shown here. Equal entries are not always repeated. Where two headings read alike, the source gives them in different places.

Key:
P. falciparum NF54 [1] = experiment: In vitro P. falciparum 120 hour assay (96+24); type: cell-based; conditions: Plasmodium falciparum
Procedure: EXAMPLE. In vitro and in vivo activity against different species of Plasmodium parasites. CEM-101 was tested against intra-erythrocytic forms of P. falciparum derived from asynchronous cultures of the strain […]. Parasite growth over 120 h was measured by the incorporation of radiolabelled [^3H]hypoxanthine (in hypoxanthine free culture medium) added after 96 h of drug incubation and 24 h prior to the termination of the test. CEM-101 was followed for 120 h. CEM-101 has delayed activity when compared to other agents.
In vitro P. falciparum data for CEM-101 in the 120 h Assay (96+24)

P. falciparum NF54 [2] = experiment: In vitro P. falciparum 72 hour assay (48+24); type: cell-based; conditions: Plasmodium falciparum
Procedure: EXAMPLE. In vitro and in vivo activity against different species of Plasmodium parasites. CEM-101 was tested against intra-erythrocytic forms of P. falciparum derived from asynchronous cultures of the strain […]. […] CEM-101 was followed for 120 h. CEM-101 has delayed activity when compared to other agents.
In vitro P. falciparum data for CEM-101 in the 72 h Assay (48+24)

P. berghei = experiment: Murine P. berghei model, oral 1x or 4x 100 mg/kg; type: in vivo; conditions: mice; for Parasitized RBC over 100 (made by FACS): individual animals
Procedure: EXAMPLE. CEM-101 activity in infected mice.
EXAMPLE. CEM-101 was tested in the murine P. berghei model as described by Vennerstrom et al. Nature 430(7002):900-904 (2004), the disclosure of which is incorporated herein by reference.

M. tuberculosis [3] = conditions: 100 mg/kg once daily for 3 weeks (Zhu 2008); cited from earlier work
[4] = tested on: replicating M. tuberculosis; conditions: reported values; cited from earlier work
M. avium = conditions: Bermudez 2001; cited from earlier work
[5] = tested on: replicating M. tuberculosis; experiment: Aero RLU (Relative Light Units under aerobic conditions), replicating culture; type: cell-based; conditions: two experiments
M. tuberculosis [6] = conditions: reported in vitro activity; cited from earlier work
[7] = tested on: replicating M. tuberculosis; experiment: Microplate Alamar Blue Assay (MABA), replicating culture; type: cell-based; conditions: two experiments
M. avium complex = experiment: Broth dilution MIC versus M. avium complex isolates; type: cell-based, Mycobacterium avium
M. avium LPR ATCC 49601 = experiment: Murine model of M. avium infection, CFU in spleens and lungs; type: in vivo; conditions: mice, 200 mg/kg orally 5 days/week for 4 weeks; P<0.05
[8] = NF54, 120 h assay (96+24), read-out: IC50 NF54
[9] = NF54, 120 hour assay (96+24), read-out: IC50 NF54 Test 1
[10] = NF54, 120 hour assay (96+24), read-out: IC50 NF54 Test 2
[11] = NF54, 120 hour assay (96+24), read-out: IC50 NF54 Test 3

## C[C@H]1[C@H](OC(=O)CCC(=O)O)O[C@@H]2O[C@@]3(C)CC[C@H]4[C@H](C)CC[C@@H]1[C@@]24OO3 [Artesunate]
P. falciparum NF54 [1]; NF54, 120 h, read-out: IC50 NF54
  IC50: 3.3 ng/mL (≈ 0.00858 µM)
P. falciparum NF54 [1]; NF54, 120 h, read-out: IC50 NF54 Test 1
  IC50: 4.2 ng/mL (≈ 0.0109 µM)
P. falciparum NF54 [1]; NF54, 120 h, read-out: IC50 NF54 Test 2
  IC50: 3.9 ng/mL (≈ 0.0101 µM)
P. falciparum NF54 [1]; NF54, 120 h, read-out: IC50 NF54 Test 3
  IC50: 3.3 ng/mL (≈ 0.00858 µM)
P. falciparum NF54 [2]; NF54, 72 h, read-out: IC50 NF54 TEST 1
  IC50: 3 ng/mL (≈ 0.0078 µM)
P. falciparum NF54 [2]; NF54, 72 h, read-out: IC50 NF54 TEST 2
  IC50: 3.2 ng/mL (≈ 0.00832 µM)
P. falciparum NF54 [2]; NF54, 72 h, read-out: IC50 NF54 TEST 3
  IC50: 3 ng/mL (≈ 0.0078 µM)
P. falciparum NF54 [2]; NF54, 72 h, read-out: IC50 NF54 TEST 4
  IC50: 2.8 ng/mL (≈ 0.00728 µM)
P. falciparum NF54 [2]; NF54, 72 h, read-out: IC50 NF54 Test 1
  IC50: 3 ng/mL (≈ 0.0078 µM)
P. falciparum NF54 [2]; NF54, 72 h, read-out: IC50 NF54 Test 2
  IC50: 3.2 ng/mL (≈ 0.00832 µM)
P. falciparum NF54 [2]; NF54, 72 h, read-out: IC50 NF54 Test 3
  IC50: 3 ng/mL (≈ 0.0078 µM)
P. falciparum NF54 [2]; NF54, 72 h, read-out: IC50 NF54 Test 4
  IC50: 2.8 ng/mL (≈ 0.00728 µM)

## CC[C@H]1OC(=O)[C@H](C)[C@@H](O[C@H]2C[C@@](C)(OC)[C@@H](O)[C@H](C)O2)[C@H](C)[C@@H](O[C@@H]2O[C@H](C)C[C@H](N(C)C)[C@H]2O)[C@](C)(O)C[C@@H](C)CN(C)[C@H](C)[C@@H](O)[C@]1(C)O [Azithromycin, reference compound]
P. berghei; 1 × 100 mg/kg oral, DMSO
  Activity (%): 70.39%
  Survival: 14.0 days
P. berghei; 1 × 100 mg/kg oral, HPMC
  Activity (%): 65.19%
  Survival: 14.0 days
P. berghei; 4 × 100 mg/kg oral, DMSO
  Activity (%): 99.11%
  Cure (%): 0%
P. berghei; 4 × 100 mg/kg oral, DMSO, survivors sacrificed on Day 31
  Survival: 30.0 days
P. berghei; 4 × 100 mg/kg oral, HPMC
  Activity (%): 99.13%
  Cure (%): 0%
P. berghei; 4 × 100 mg/kg oral, HPMC, survivors sacrificed on Day 31
  Survival: 24.0 days
P. berghei; 4× 100 mg/kg p.o.
  blood from treated animals parasite free or not: is not
P. berghei; 4× 100 mg/kg p.o., DMSO
  Visual Observation (parasites in blood): pos
P. berghei; 4× 100 mg/kg p.o., DMSO, 100 mg/kg
  Parasitized RBC over 100 (made by FACS): 34.32 and 2.20 and 36.31
P. berghei; 4× 100 mg/kg p.o., HPMC
  Visual Observation (parasites in blood): pos
  Parasitized RBC over 100 (made by FACS): 74.04

## CC[C@H]1OC(=O)[C@H](C)C(=O)[C@H](C)[C@@H](O[C@@H]2O[C@H](C)C[C@H](N(C)C)[C@H]2O)[C@](C)(OC/C=C/c2cnc3ccccc3c2)C[C@@H](C)C(=O)[C@H](C)[C@H]2NC(=O)O[C@@]21C [Cethromycin]
M. tuberculosis [3]
  reduction of CFU in the lungs of mice: failed to significantly reduce CFU
[4]
  MABA MIC: 4000 ng/mL
M. avium
  bactericidal activity against M. avium: lack of significant bactericidal activity

## CCN(CC)CCCC(C)Nc1ccnc2cc(Cl)ccc12 (stereo not shown) [Chloroquine]
P. falciparum NF54 [1]; [8]
  IC50: 4.7 ng/mL (≈ 0.0147 µM)
P. falciparum NF54 [1]; [9]
  IC50: 4.6 ng/mL (≈ 0.0144 µM)
P. falciparum NF54 [1]; [10]
  IC50: 4.6 ng/mL (≈ 0.0144 µM)
P. falciparum NF54 [1]; [11]
  IC50: 4.7 ng/mL (≈ 0.0147 µM)
P. falciparum NF54 [2]; NF54, 72 h assay (48+24), read-out: IC50 NF54 TEST 1
  IC50: 4.4 ng/mL (≈ 0.0138 µM)
P. falciparum NF54 [2]; NF54, 72 h assay (48+24), read-out: IC50 NF54 TEST 2
  IC50: 5.4 ng/mL (≈ 0.0169 µM)
P. falciparum NF54 [2]; NF54, 72 h assay (48+24), read-out: IC50 NF54 TEST 3
  IC50: 4.4 ng/mL (≈ 0.0138 µM)
P. falciparum NF54 [2]; NF54, 72 h assay (48+24), read-out: IC50 NF54 TEST 4
  IC50: 4.8 ng/mL (≈ 0.015 µM)
P. falciparum NF54 [2]; NF54, 72 hour assay (48+24), read-out: IC50 NF54 Test 1
  IC50: 4.4 ng/mL (≈ 0.0138 µM)
P. falciparum NF54 [2]; NF54, 72 hour assay (48+24), read-out: IC50 NF54 Test 2
  IC50: 5.4 ng/mL (≈ 0.0169 µM)
P. falciparum NF54 [2]; NF54, 72 hour assay (48+24), read-out: IC50 NF54 Test 3
  IC50: 4.4 ng/mL (≈ 0.0138 µM)
P. falciparum NF54 [2]; NF54, 72 hour assay (48+24), read-out: IC50 NF54 Test 4
  IC50: 4.8 ng/mL (≈ 0.015 µM)

## CC[C@H]1OC(=O)[C@H](C)[C@@H](O[C@H]2C[C@@](C)(OC)[C@@H](O)[C@H](C)O2)[C@H](C)[C@@H](O[C@@H]2O[C@H](C)C[C@H](N(C)C)[C@H]2O)[C@](C)(OC)C[C@@H](C)C(=O)[C@H](C)[C@@H](O)[C@]1(C)O [Clarithromycin, reference compound]
[5]
  Aero RLU: 22.46 µM and 18.82 µM
M. tuberculosis [6]
  MIC: 8000 ng/mL (≈ 10.7 µM)
[4]
  MABA MIC: 8000 ng/mL
[7]; Mycobacterium tuberculosis
  MIC: 14.5 µM (≈ 10.9 µg/mL)
[7]
  MIC: 13.34 µM (≈ 9.98 µg/mL)
M. avium complex; Mycobacterium avium
  MIC: 128000 ng/mL (≈ 171 µM)
M. avium complex; Mycobacterium avium, isolate MAC 101, clarithromycin susceptible, read-out: MIC
  MIC: 125 ng/mL (≈ 0.167 µM)
M. avium complex; Mycobacterium avium, isolate MAC 103, clarithromycin resistant, read-out: MIC
  MIC: 64000 ng/mL (≈ 85.6 µM)
M. avium complex; Mycobacterium avium, isolate MAC 108, clarithromycin resistant, read-out: MIC
  MIC: 64000 ng/mL (≈ 85.6 µM)
M. avium complex; Mycobacterium avium, isolate MAC 110, clarithromycin resistant, read-out: MIC
  MIC: 64000 ng/mL (≈ 85.6 µM)
M. avium complex; Mycobacterium avium, isolate MAC 216, clarithromycin resistant, read-out: MIC
  MIC: 32000 ng/mL (≈ 42.8 µM)
M. avium complex; Mycobacterium avium, isolate MAC 309, clarithromycin resistant, read-out: MIC
  MIC: 64000 ng/mL (≈ 85.6 µM)
M. avium complex; Mycobacterium avium, isolate MAC 320, clarithromycin resistant, read-out: MIC
  MIC: 64000 ng/mL (≈ 85.6 µM)
M. avium complex; Mycobacterium avium, isolate MAC 623, clarithromycin resistant, read-out: MIC
  MIC: 64000 ng/mL (≈ 85.6 µM)
M. avium complex; Mycobacterium avium, isolate MAC 625, clarithromycin resistant, read-out: MIC
  MIC: 64000 ng/mL (≈ 85.6 µM)
M. avium complex; Mycobacterium avium, isolate MAC 643, clarithromycin resistant, read-out: MIC
  MIC: 64000 ng/mL (≈ 85.6 µM)
M. avium complex; Mycobacterium avium, isolate MAC 1408, clarithromycin susceptible, read-out: MIC
  MIC: 250 ng/mL (≈ 0.334 µM)
M. avium complex; Mycobacterium avium, isolate MAC 3404.4, clarithromycin susceptible, read-out: MIC
  MIC: 125 ng/mL (≈ 0.167 µM)
M. avium complex; Mycobacterium avium, isolate MAC 9141, clarithromycin susceptible, read-out: MIC
  MIC: 250 ng/mL (≈ 0.334 µM)
M. avium complex; Mycobacterium avium, isolate MAC FAR, clarithromycin susceptible, read-out: MIC
  MIC: 125 ng/mL (≈ 0.167 µM)
M. avium complex; Mycobacterium avium, isolate MAC GRL, clarithromycin susceptible, read-out: MIC
  MIC: 2000 ng/mL (≈ 2.67 µM)
M. avium complex; Mycobacterium avium, isolate MAC KAL, clarithromycin susceptible, read-out: MIC
  MIC: 8000 ng/mL (≈ 10.7 µM)
M. avium complex; Mycobacterium avium, isolate MAC KZL, clarithromycin susceptible, read-out: MIC
  MIC: 1000 ng/mL (≈ 1.34 µM)
M. avium complex; Mycobacterium avium, isolate MAC Pry, clarithromycin resistant, read-out: MIC
  MIC: 64000 ng/mL (≈ 85.6 µM)
M. avium complex; Mycobacterium avium, isolate MAC SMT, clarithromycin susceptible, read-out: MIC
  MIC: 250 ng/mL (≈ 0.334 µM)
M. avium complex; Mycobacterium avium, isolate MAC TEL, clarithromycin susceptible, read-out: MIC
  MIC: 2000 ng/mL (≈ 2.67 µM)
M. avium complex; Mycobacterium avium, isolate MAC TRY, clarithromycin susceptible, read-out: MIC
  MIC: 500 ng/mL (≈ 0.668 µM)
M. avium complex; isolate MAC 224, clarithromycin resistant
  MIC: 128000 ng/mL (≈ 171 µM)
M. avium LPR ATCC 49601
  reduction in growth of MAC LPR in the spleens and lungs compared to the late controls: significant

## CCC[C@@H]1C[C@@H](C(=O)N[C@@H]([C@H]2O[C@H](SC)[C@H](O)[C@@H](O)[C@H]2O)[C@H](C)Cl)N(C)C1 [Clindamycin]
P. falciparum NF54 [1]; [8]
  IC50: 5.3 ng/mL (≈ 0.0125 µM)
P. falciparum NF54 [1]; [9]
  IC50: < 7.8 ng/mL
P. falciparum NF54 [1]; [10]
  IC50: 5.3 ng/mL (≈ 0.0125 µM)
P. falciparum NF54 [1]; [11]
  IC50: 5.3 ng/mL (≈ 0.0125 µM)
P. berghei; 4 × 100 mg/kg oral, DMSO
  Cure (%): 0%
P. berghei; 4 × 100 mg/kg oral, HPMC
  Cure (%): 0%

## CC[C@H]1OC(=O)[C@H](C)C(=O)[C@H](C)[C@@H](O[C@@H]2O[C@H](C)C[C@H](N(C)C)[C@H]2O)[C@](C)(OC)C[C@@H](C)C(=O)[C@H](C)[C@H]2N(CCCCn3cnc(-c4cccnc4)c3)C(=O)O[C@]12C [telithromycin]
[4]
  MABA MIC: 128000 ng/mL
M. avium
  bactericidal activity against M. avium: lack of significant bactericidal activity
